Test results taken from patent US20220363709A1, “ECTONU[…] METHODS OF USE THEREOF” (priority 2019, published 2022).

What follows are compounds tested against T1, recombinant CD73 (Homo sapiens, UniProt P21589) (assay: Assay 1: Inhibition of the CD73 Enzyme In Vitro). Details: not given.
T1 construct: purchased R&D Systems 5795-EN-010
T1 sequence (P21589 27-547 limits assumed): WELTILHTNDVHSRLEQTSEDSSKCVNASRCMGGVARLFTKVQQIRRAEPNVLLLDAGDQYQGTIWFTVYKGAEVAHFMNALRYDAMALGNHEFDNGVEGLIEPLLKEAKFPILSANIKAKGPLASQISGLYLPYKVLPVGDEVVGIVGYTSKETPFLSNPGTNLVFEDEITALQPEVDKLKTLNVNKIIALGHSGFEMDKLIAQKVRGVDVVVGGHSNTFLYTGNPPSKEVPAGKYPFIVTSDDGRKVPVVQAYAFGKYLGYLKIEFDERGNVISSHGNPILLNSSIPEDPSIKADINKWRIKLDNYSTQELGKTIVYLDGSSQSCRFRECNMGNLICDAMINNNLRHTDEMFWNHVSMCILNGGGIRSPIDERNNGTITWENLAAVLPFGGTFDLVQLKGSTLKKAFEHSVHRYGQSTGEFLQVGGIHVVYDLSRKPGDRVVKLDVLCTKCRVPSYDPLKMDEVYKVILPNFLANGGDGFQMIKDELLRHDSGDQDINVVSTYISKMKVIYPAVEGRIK
Assay type: biochemical
Protocol: Serial dilutions of test compounds were incubated with recombinant CD73 and AMP in reaction buffer (25 mM Tris HCl pH7.5, 5 mM MgCl2, 50 mM NaCl, 0.25 mM DTT, 0.005% Triton X-100). The final reaction volume was 25 μL and the final concentrations of recombinant CD73 and AMP were 0.5 nM and 50 μM, respectively. […] After 5 minutes at room temperature, absorbance at 630 nm was determined on a microplate spectrophotometer. The concentration of inorganic phosphate was determined using a phosphate standard curve.
ND indicates not determined.
`COC(=O)c1ccccc1-c1ccc(CC(OC[C@H]2O[C@@H](n3cnc4c(N)nc(Cl)nc43)[C@H](O)[C@@H]2O)(C(=O)O)c2ccccc2)cc1` (stereo partly drawn) [Example 46, 2-(((2R,3S,4R,5R)-5-(6-amino-2-chloro-9H-purin-9-yl)-3,4-dihydroxytetrahydrofuran-2-yl)methoxy)-3-(2′-(methoxycarbonyl)-[1,1′-biphenyl]-4-yl)-2-phenylpropanoic acid] gave an IC50 of over 50000 nM. `Nc1nc(Cl)nc2c1ncn2[C@@H]1O[C@H](COC(Cc2ccc(-c3ccccc3C(=O)O)cc2)(C(=O)O)c2cscn2)C[C@H]1O` (stereo partly drawn) [Example 50, 4′-(2-(((2S,4R,5R)-5-(6-amino-2-chloro-9H-purin-9-yl)-4-hydroxytetrahydrofuran-2-yl)methoxy)-2-carboxy-2-(thiazol-4-yl)ethyl)-[1,1′-biphenyl]-2-carboxylic acid] gave an IC50 of over 1000 nM.

Same assay, conditions: soluble recombinant CD73 0.5 nM, AMP 50 μM, 30 minutes at room temperature, Malachite Green, absorbance at 630 nm; read-out: Assay 1 CD73 IC50
For `CS(=O)(=O)Nc1ccccc1-c1ccc(C[C@](OC[C@H]2O[C@@H](n3cnc4c(N)nc(Cl)nc43)[C@H](O)[C@@H]2O)(C(=O)O)c2cscn2)cc1` (single isomer, unassigned) [Example 42], the IC50 was 904 nM. `Nc1nc(Cl)nc2c1ncn2[C@@H]1O[C@H](CO[C@](Cc2ccc(-c3ccccc3OC(F)(F)F)cc2)(C(=O)O)c2cscn2)[C@@H](O)[C@H]1O` (single isomer, unassigned) [Example 43] showed an IC50 of 51 nM. For `Nc1nc(Cl)nc2c1ncn2[C@@H]1O[C@H](CO[C@@](Cc2ccc(-c3ccccc3OC(F)(F)F)cc2)(C(=O)O)c2cscn2)[C@@H](O)[C@H]1O` (single isomer, unassigned) [Example 44], the IC50 was 365 nM. For `Nc1nc(Cl)nc2c1ncn2[C@@H]1O[C@H](CO[C@](Cc2ccc(-c3ccccc3C(=O)O)cc2)(C(=O)O)c2ccccc2)[C@@H](O)[C@H]1O` (single isomer, unassigned) [Example 47], the IC50 was 4220 nM. `Nc1nc(Cl)nc2c1ncn2[C@@H]1O[C@H](CO[C@@](Cc2ccc(-c3ccccc3C(=O)O)cc2)(C(=O)O)c2ccccc2)[C@@H](O)[C@H]1O` (single isomer, unassigned) [Example 48] was tested, and the IC50 was 14100 nM.
